Data as given in ChEMBL document CHEMBL4765420, “Design, synthesis and biological evaluation of novel HDAC inhibitors with improved pharmacokinetic profile in breast cancer” (Eur J Med Chem, 2020).
Active and inactive are the calls of the source. The rule behind the calls is not given here.

Columns and labels:
[1] = molecular target: T1, Protein deacetylase HDAC6 (Homo sapiens, UniProt Q9UBN7); experiment: Inhibition of recombinant human His-tagged HDAC6 expressed in baculovirus infected insect cells using Ac-Leu-Gly-Lys(Ac)-AMC as substrate measured after 30 mins by fluorescence assay
T1 sequence (Q9UBN7 whole entry): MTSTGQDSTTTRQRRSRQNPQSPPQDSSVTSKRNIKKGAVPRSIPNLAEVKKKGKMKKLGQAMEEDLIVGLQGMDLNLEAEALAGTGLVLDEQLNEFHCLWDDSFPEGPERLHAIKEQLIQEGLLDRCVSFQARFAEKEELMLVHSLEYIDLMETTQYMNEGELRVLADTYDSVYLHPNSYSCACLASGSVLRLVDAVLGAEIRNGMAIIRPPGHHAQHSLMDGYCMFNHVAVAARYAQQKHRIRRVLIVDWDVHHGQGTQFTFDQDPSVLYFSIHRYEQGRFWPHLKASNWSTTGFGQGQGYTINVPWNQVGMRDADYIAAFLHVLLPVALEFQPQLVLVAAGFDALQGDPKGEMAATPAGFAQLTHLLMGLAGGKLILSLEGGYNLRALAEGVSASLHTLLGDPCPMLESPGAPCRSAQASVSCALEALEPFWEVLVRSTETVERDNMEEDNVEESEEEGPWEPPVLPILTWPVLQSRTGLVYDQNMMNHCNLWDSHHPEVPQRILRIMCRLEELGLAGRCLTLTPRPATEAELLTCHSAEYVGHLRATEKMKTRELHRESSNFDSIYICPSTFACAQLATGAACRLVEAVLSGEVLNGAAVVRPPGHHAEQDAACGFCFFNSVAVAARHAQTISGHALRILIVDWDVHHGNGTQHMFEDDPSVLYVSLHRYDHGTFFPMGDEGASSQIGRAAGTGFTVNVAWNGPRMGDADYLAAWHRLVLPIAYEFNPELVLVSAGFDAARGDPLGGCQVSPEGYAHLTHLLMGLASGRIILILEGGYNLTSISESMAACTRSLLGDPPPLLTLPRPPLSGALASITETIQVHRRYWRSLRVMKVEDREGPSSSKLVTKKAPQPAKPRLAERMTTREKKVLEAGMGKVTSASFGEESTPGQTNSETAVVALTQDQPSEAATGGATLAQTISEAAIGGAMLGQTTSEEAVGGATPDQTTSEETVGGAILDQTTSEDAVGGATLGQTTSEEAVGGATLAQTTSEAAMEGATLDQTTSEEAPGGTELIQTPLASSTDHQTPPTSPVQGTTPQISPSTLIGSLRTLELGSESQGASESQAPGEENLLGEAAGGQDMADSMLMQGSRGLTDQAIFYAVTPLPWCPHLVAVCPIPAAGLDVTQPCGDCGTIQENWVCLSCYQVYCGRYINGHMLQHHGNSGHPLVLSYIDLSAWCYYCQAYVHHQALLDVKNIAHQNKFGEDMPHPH

Histone deacetylase 4 = Histone deacetylase 4 (Homo sapiens, UniProt P56524); experiment: Inhibition of recombinant human N-terminal GST-tagged HDAC4 (627 to end residues) expressed in baculovirus infected Sf9 insect cells using AcLeu-Gly-Lys(Tfa)-AMC as substrate measured after 30 mins by fluorescence assay
Histone deacetylase 5 = Histone deacetylase 5 (Homo sapiens, UniProt Q9UQL6); experiment: Inhibition of recombinant human full-length N-terminal GST-tagged HDAC5 expressed in baculovirus infected Sf9 insect cells using AcLeu-Gly-Lys(Tfa)-AMC as substrate measured after 30 mins by fluorescence assay
[2] = molecular target: T2, Polyamine deacetylase HDAC10 (Homo sapiens, UniProt Q969S8); experiment: Inhibition of recombinant human C-terminal His-tagged HDAC10 expressed in baculovirus infected Sf9 insect cells using Ac-Arg-His-Lys(Ac)-Lys(Ac)-AMC as substrate measured after 30 mins by fluorescence assay
T2 sequence (Q969S8 whole entry): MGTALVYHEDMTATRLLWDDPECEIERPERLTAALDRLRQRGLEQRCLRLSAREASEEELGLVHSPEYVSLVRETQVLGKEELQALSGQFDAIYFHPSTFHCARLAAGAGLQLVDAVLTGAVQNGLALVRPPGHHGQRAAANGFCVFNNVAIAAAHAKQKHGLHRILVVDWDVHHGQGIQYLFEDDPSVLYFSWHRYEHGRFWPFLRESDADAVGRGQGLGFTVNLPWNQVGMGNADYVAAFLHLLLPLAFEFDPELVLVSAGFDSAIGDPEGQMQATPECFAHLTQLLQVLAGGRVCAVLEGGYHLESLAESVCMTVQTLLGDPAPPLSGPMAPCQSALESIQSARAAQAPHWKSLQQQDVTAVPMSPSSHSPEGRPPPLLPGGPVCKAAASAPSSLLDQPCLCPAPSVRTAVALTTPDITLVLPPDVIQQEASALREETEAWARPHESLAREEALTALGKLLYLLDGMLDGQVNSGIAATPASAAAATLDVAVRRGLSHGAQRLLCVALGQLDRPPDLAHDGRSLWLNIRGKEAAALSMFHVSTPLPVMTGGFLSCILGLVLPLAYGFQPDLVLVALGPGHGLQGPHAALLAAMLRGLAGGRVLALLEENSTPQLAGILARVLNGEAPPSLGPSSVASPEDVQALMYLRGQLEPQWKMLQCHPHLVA

[3] = molecular target: T3, Protein deacetylase HDAC6 (Homo sapiens) (UniProt Q9UBN7); experiment: Inhibition of HDAC6 in human MDA-MB-231 cells assessed as increase in alpha-tubulin acetylation at 2.5 to 10 uM measured after 24 hrs by Western blot analysis; type: cell-based; conditions: dose 2.5-10 µM
T3 sequence (whole entry): T1 sequence (Q9UBN7 whole entry)

MDA-MB-231 [4] = experiment: Induction of apoptosis in human MDA-MB-231 cells assessed as increase in DNA fragmentation at 2.5 to 10 uM measured after 24 hrs by Hoechst 33258 staining based immunofluorescence assay; type: functional, cell-based; conditions: dose 2.5-10 µM
MDA-MB-231 [5] = experiment: Induction of apoptosis in human MDA-MB-231 cells assessed as viable cells at 2.5 uM measured after 24 hrs by Annexin-V/propidium iodide staining based flow cytometry (reference value: 95.68 to 98.38%); type: functional; conditions: read-out: Activity
MDA-MB-231 [6] = experiment: Induction of apoptosis in human MDA-MB-231 cells assessed as early apoptotic cells at 5 uM measured after 24 hrs by Annexin-V/propidium iodide staining based flow cytometry (reference value: 0.69 to 0.92%); type: functional
MDA-MB-231 [7] = experiment: Induction of apoptosis in human MDA-MB-231 cells assessed as necrotic cells at 10 uM measured after 24 hrs by Annexin-V/propidium iodide staining based flow cytometry (reference value: 0.22 to 0.46%); type: functional
MDA-MB-231 [8] = experiment: Inhibition of cell migration in human MDA-MB-231 cells measured after 24 hrs by phase-contrast microscopy based wound healing assay; type: functional
MDA-MB-231 [9] = experiment: Induction of autophagy in human MDA-MB-231 cells assessed as increase in LC3II expression at 2.5 to 10 uM measured after 24 hrs by Western blot analysis; type: functional, cell-based; conditions: dose 2.5-10 µM
MDA-MB-231 [10] = experiment: Induction of autophagy in human MDA-MB-231 cells assessed as decrease in SQSTM1/p62 expression at 2.5 to 10 uM measured after 24 hrs by Western blot analysis; type: functional, cell-based; conditions: dose 2.5-10 µM

Sequence of Histone deacetylase 5 (Q9UQL6 whole entry): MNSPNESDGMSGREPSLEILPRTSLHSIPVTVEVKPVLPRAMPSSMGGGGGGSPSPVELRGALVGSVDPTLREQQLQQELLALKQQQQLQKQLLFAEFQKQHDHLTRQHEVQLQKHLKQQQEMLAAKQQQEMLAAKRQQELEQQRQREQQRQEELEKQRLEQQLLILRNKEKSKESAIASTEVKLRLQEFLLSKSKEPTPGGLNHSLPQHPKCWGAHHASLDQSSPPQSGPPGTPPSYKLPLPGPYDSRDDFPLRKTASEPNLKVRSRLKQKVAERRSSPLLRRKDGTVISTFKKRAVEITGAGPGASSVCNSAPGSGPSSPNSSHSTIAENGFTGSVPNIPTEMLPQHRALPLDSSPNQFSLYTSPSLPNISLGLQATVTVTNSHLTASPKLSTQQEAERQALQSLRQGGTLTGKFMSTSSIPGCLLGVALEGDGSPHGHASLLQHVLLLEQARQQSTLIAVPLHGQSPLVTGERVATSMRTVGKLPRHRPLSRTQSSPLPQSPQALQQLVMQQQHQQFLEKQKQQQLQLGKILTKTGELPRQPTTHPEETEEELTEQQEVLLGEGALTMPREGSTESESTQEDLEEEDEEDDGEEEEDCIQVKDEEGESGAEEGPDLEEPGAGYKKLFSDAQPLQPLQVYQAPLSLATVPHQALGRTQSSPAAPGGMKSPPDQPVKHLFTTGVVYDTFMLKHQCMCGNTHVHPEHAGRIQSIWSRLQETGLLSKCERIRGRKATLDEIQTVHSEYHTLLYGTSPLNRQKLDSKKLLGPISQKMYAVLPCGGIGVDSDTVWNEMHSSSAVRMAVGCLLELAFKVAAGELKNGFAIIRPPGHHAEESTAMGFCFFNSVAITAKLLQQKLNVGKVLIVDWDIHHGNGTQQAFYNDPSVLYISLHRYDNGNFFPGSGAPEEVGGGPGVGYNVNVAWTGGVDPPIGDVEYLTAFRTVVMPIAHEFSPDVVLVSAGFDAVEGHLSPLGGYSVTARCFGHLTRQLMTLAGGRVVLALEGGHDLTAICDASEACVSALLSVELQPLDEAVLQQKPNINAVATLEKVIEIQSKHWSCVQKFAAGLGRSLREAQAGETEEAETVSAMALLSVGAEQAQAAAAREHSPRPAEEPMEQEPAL
Sequence of Histone deacetylase 4 (P56524 whole entry): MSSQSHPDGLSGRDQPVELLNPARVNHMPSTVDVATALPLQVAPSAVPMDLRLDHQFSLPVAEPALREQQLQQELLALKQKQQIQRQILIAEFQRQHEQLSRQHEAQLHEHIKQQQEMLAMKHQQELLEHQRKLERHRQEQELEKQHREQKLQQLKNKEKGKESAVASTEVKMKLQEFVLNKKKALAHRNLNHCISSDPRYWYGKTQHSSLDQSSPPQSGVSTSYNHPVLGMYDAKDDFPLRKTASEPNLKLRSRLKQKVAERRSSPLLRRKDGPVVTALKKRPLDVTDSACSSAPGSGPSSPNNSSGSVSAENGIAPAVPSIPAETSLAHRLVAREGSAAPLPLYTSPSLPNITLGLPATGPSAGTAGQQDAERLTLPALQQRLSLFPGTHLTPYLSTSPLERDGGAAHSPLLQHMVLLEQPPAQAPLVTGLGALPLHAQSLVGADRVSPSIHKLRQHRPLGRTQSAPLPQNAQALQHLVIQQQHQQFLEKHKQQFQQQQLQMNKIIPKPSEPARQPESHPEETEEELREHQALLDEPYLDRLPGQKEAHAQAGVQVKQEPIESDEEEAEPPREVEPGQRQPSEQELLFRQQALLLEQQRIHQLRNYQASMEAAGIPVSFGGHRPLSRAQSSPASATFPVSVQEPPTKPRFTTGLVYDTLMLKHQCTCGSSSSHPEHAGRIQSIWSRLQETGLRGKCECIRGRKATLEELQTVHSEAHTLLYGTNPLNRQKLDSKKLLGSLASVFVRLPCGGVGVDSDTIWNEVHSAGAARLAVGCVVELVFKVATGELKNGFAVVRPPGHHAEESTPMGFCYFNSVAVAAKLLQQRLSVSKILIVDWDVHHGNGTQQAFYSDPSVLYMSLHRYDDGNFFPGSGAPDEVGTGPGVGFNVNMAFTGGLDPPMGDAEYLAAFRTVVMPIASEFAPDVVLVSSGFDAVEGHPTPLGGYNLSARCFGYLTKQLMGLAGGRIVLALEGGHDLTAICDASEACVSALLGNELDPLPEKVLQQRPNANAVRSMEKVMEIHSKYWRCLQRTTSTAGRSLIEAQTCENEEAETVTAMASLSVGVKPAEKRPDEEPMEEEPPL

Work on COc1cc(OC)c2c(N3CCS(=O)(=O)CC3)nc(-c3cc(C)c(OCCCCCC(=O)NO)c(C)c3)nc2c1 yielded an IC50 [1] of 55.3 nM, an IC50 (Histone deacetylase 4) greater than 1000 nM and an IC50 (Histone deacetylase 5) of 688 nM. For the same compound, the IC50 [2] was 78.2 nM, the inhibition [3] was “Active” and the Activity (MDA-MB-231 [4]) was “Active”. The viability at 2.5 µM (MDA-MB-231 [5]) was 84.2%, the Activity (MDA-MB-231 [6]) was 16.28% and the Activity (MDA-MB-231 [7]) was 0.26%. The inhibition (MDA-MB-231 [8]) was “Dose-dependent effect”, the Activity (MDA-MB-231 [9]) was “Active” and the Activity (MDA-MB-231 [10]) was “Active”.
